Experimental data taken from article PMC4885489, “Prediction of Drug-Drug Interactions Arising from CYP3A induction Using a Physiologically Based Dynamic Model” (Drug Metabolism and Disposition, 2016).
Values joined by “and” are separate entries in the source; they are usually repeats but may differ in a detail not shown here. Equal values may be shown once. Read-outs that look alike come from different tables or passages of the source.

Key:
[1] = cited from earlier work
[2] = test system: CYP3A4; conditions: human, in vivo, po, cited from earlier work
[3] = cited from earlier work; remark: listed apart in the source
[4] = test system: rCYP3A5; conditions: cited from earlier work; for Km: read-out: rCYP3A5 Km
[5] = cited from earlier work; remark: listed apart in the source
[6] = test system: rUGT2B7; set-up: method as in ref (Staines et al., 2004); conditions: ref (Staines et al., 2004); cited from earlier work
[7] = test system: CYP3A; experiment: in vitro; conditions: human, cryopreserved human hepatocytes
[8] = cited from earlier work; remark: listed apart in the source
[9] = test system: rCYP3A4; conditions: ref (Cazali et al., 2003), (Huang et al., 2004), cited from earlier work
[10] = test system: rCYP2C8; set-up: method as in ref (Cazali et al., 2003); conditions: ref (Cazali et al., 2003); cited from earlier work
[11] = ref Meta-analysis (Bonneton et al., 1992); (de Groot et al., 1984); cited from earlier work
[12] = Neutral; ref (Zhu et al., 2002); (Lombardo et al., 2000); (Henczi et al., 1995) and 4 others; cited from earlier work
[13] = test system: CYP3A; conditions: mean of four human hepatocyte donors; three-parameter fit; Indmax = Emax + 1
[14] = test system: CYP3A; experiment: in vitro; conditions: human, cryopreserved human hepatocytes, probe testosterone (6β-hydroxytestosterone formation)
[15] = test system: HLM; set-up: method as in ref (Pearce et al., 2002); conditions: Other enzymes were combined; ref (Pearce et al., 2002); cited from earlier work
[16] = test system: HLM; experiment: Additional (unassigned) intrinsic clearance; conditions: Added to recover degree of auto-induction via enzymes other than CYP3A4
[17] = test system: CYP3A; conditions: mean of four human hepatocyte donors; three-parameter fit; Indmax = Emax + 1; remark: listed apart in the source
[18] = test system: CYP3A4; experiment: Rifampicin-mediated clinical drug-drug interaction studies with CYP3A4 probe substrates; assay type: in vivo, human; conditions: for reduction in MDZ AUC, median: rifampicin, across clinical studies of Table 3; for fold induction: human, plasma, read-out: Geometric mean fold induction
[19] = test system: rUGT1A4; conditions: corrected for fumic & ISEF, ref Meta-analysis (Emoto et al., 2003), (Galetin et al., 2004) and 7 others incl. (Hyland et al., 2009), cited from earlier work
[20] = test system: CYP3A4; conditions: read-out: CYP3A4 Ki; ref (Nielsen et al., 1999); (Ngui et al., 2000); (Guengerich et al., 1986); cited from earlier work
[21] = test system: CYP2D6; set-up: method as in ref (Ching et al., 1995); (Broly et al., 1989); (Lalovic et al., 2004); conditions: ref (Ching et al., 1995); (Broly et al., 1989); (Lalovic et al., 2004); cited from earlier work
[22] = test system: rCYP2C9; conditions: corrected for fumic & ISEF, ref (Von Moltke et al., 1999), cited from earlier work; for Km: read-out: rCYP2C9 Km
[23] = test system: rCYP2J2; conditions: corrected for fumic & ISEF, ref (Von Moltke et al., 1999), cited from earlier work; for Km: read-out: rCYP2J2 Km
[24] = test system: CYP3A4; conditions: human, in vivo, cited from earlier work
[25] = test system: rCYP2D6; conditions: corrected for fumic & ISEF, ref (Von Moltke et al., 1999), cited from earlier work; for Km: read-out: rCYP2D6 Km
[26] = test system: rCYP1A2; conditions: corrected for fumic & ISEF, ref (Von Moltke et al., 1999), cited from earlier work; for Km: read-out: rCYP1A2 Km
[27] = test system: rCYP2C19; conditions: M3, corrected for fumic & ISEF, ref (Von Moltke et al., 1999), cited from earlier work
[28] = 1-hydroxylation, corrected for fumic & ISEF, ref Meta-analysis (Emoto et al., 2003), (Galetin et al., 2004) and 7 others
[29] = 4-hydroxylation, corrected for fumic & ISEF, ref Meta-analysis (Emoto et al., 2003), (Galetin et al., 2004) and 7 others

In the case of `C=C[C@@]1(O)CN2CC[C@H]1C[C@@H]2[C@@H](O)c1ccnc2ccc(OC)cc12` [3-OH Quinidine], the CLR ([1]; in vivo) is given as 16.7 L/h and the CLpo ([1]; in vivo) is given as 52.6 L/h.

For `Cc1nnc2n1-c1ccc(Cl)cc1C(c1ccccc1)=NC2` [Alprazolam, alprazolam], the AUC ([2]; 1 mg) is listed as 242 (31.3) ng/mL.h, the AUCi [2] is listed as 28.4 (23.9) ng/mL.h and the ka ([3]; ref (Smith et al., 1984), (Lin et al., 1988), (Kirkwood et al., 1991), (Amchin et al., 1998), (Greenblatt et al., 1983)) is listed as 3.56 h⁻¹. For the same molecule, the Km ([4]; 4-hydroxylation, corrected for fumic & ISEF, ref Meta-analysis (Hirota et al., 2001), (Galetin et al., 2004) (Williams et al., 2002)) was 211 µM, the Km ([4]; second pathway, printed 'oxylation', corrected for fumic & ISEF, ref Meta-analysis (Hirota et al., 2001), (Galetin et al., 2004) (Williams et al., 2002)) was 205 µM and the “Vss (Minimal PBPK)” value ([5]; in vivo) was 0.99 L/kg. For the same molecule, the CLR ([1]; in vivo) was 0.678 L/h.

In the case of `NC(=O)N1c2ccccc2C=Cc2ccccc21` [Carbamazepine, carbamazepine], the Km [6] is listed as 25.4 µM, the “rUGT2B7 Vmax” value [6] is listed as 4.18 pmol/min/pmol and the EC50 [7] is listed as 58.7 µM. For the same molecule, the fu ([8]; ref Meta-analysis (Grimsley et al., 1991), (Di Salle et al., 1974), (Rawlins et al., 1975) and 4 others) was 0.25, the Km ([9]; read-out: rCYP3A4 Km) was 180 µM and the “rCYP3A4 Vmax” value [9] was 0.72 pmol/min/pmol. For the same molecule, the ka ([3]; ref (Geradin et al., 1976), (Grimsley et al., 1991), (Olling et al., 1999), (Wong et al., 1983)) was 0.5 h⁻¹, the fa ([3]; ref (Tchaparian et al., 2008), (Faigle and Feldmann, 1975), (Levy et al., 1975)) was 0.84 and the Km [10] was 742 µM. For the same molecule, the “rCYP2C8 Vmax” value [10] was 0.03 pmol/min/pmol, the “B:P” value [11] was 1.07 and the Km ([4]; ref (Huang et al., 2004)) was 332 µM. For the same molecule, the “rCYP3A5 Vmax” value ([4]; ref (Huang et al., 2004)) was 1.44 pmol/min/pmol, the “Vss (Minimal PBPK)” value ([5]; ref (Ramsay et al., 1990)) was 0.78 L/kg and the logP [12] was 2.22. For the same molecule, the “mRNA Indmax” value [13] was 21.9 fold, the CLR ([1]; parent carbamazepine, ref (Kim et al., 2005)) was 0.0084 L/h and the EC50 [14] was 59.1 µM. For the same molecule, the “Add HLM CLint” value [15] was 0.255 µL/min/mg, the “Add rCYP CLint” value [16] was 0.010 µL/min/pmol and the “Activity Indmax” value [17] was 16.6 fold.

In the case of `NC(=O)N1c2ccccc2C2OC2c2ccccc21` (stereo not shown) [Carbamazepine-10,11-epoxide], the CLR ([1]; in vivo) is listed as 0.14 L/h and the CLpo ([1]; in vivo) is listed as 6.07 L/h.

In the case of `Cc1ncc2n1-c1ccc(Cl)cc1C(c1ccccc1F)=NC2` [Midazolam, midazolam], the “reduction in MDZ AUC, median” value ([18]; MDZ administered orally, listed as MDZ) is reported as 17.5 fold and 18.1 fold, the “reduction in MDZ AUC, median” value ([18]; MDZ i.v. administration) is reported as 2.0 fold and the fold induction ([18]; iv) is reported as 1.99. For the same molecule, the fold induction ([18]; po) was 18.1, the “1/AUC ratio, CI of the observations” value ([18]; meta-analysis of studies where midazolam was administered orally with rifampicin) was 5.4-60.4 and the “rUGT1A4 Vmax” value [19] was 445 µL/min/mg. The Km ([19]; read-out: rUGT1A4 Km) was 40.3 µM, the AUC ratio ([2]; 0.075 mg) was 2.3 fold and the ka ([3]; ref (Allonen et al., 1981)) was 3 h⁻¹. For the same molecule, the “rCYP3A5 Vmax” value [4, 28] was 19.7 µL/min/pmol, the “rCYP3A5 Vmax” value [4, 29] was 4.03 µL/min/pmol and the Km [4, 28] was 4.16 µM. For the same molecule, the Km [4, 29] was 34.8 µM, the “Vss (Minimal PBPK)” value ([5]; in vivo) was 1 L/kg and the CLR ([1]; in vivo) was 0.085 L/h. The Fe ([1]; in vivo) was 0.0033.

In the case of `C=C[C@H]1C[N@@]2CC[C@H]1C[C@@H]2[C@@H](O)c1ccnc2ccc(OC)cc12` [Quinidine, quinidine], the Ki [20] is listed as 40 µM and the Ki [21] is listed as […].

For `CO[C@H]1/C=C/O[C@@]2(C)Oc3c(C)c(O)c4c(O)c(c(/C=N/N5CCN(C)CC5)c(O)c4c3C2=O)NC(=O)/C(C)=C\C=C\[C@H](C)[C@H](O)[C@@H](C)[C@@H](O)[C@@H](C)[C@H](OC(C)=O)[C@@H]1C` [Rifampicin, rifampicin], the fu ([8]; ref (Burman et al., 2001)) is listed as 0.15, the “Vss (Minimal PBPK)” value ([5]; ref (Loos et al., 1985)) is listed as 0.33 L/kg and the CLiv ([1]; in vivo) is listed as 7 L/h. The CLR ([1]; ref Polk 2001) was 1.2 L/h.

In the case of `Cc1nnc2n1-c1ccc(Cl)cc1C(c1ccccc1Cl)=NC2` [Triazolam, triazolam], the AUC ([2]; 0.5 mg) is listed as 14.8 (21.4) ng/mL.h, the “1/AUC Ratio” value [2] is listed as 20.0 and the AUCi [2] is listed as 0.74 (59.8) ng/mL.h.

In the case of `Cc1ccc(-c2nc3ccc(C)cn3c2CC(=O)N(C)C)cc1` [Zolpidem, zolpidem], the “rCYP2C9 Vmax” value ([22]; M3) is given as 17.42 µL/min/pmol, the “rCYP2C9 Vmax” value ([22]; M4) is given as 0.888 µL/min/pmol and the Km ([22]; M3) is given as 103 µM. The Km ([22]; M4) was 81 µM, the “rCYP2J2 Vmax” value ([23]; M4) was 6.86 µL/min/pmol and the Km ([23]; M3) was 340 µM. For the same molecule, the Km ([23]; M4) was 399 µM, the AUC ([24]; 5 mg) was 0.235 (70.4) mg/L.h and the “1/AUC Ratio” value [24] was 2.31. For the same molecule, the AUCi [24] was 0.102 (58.1) mg/L.h, the “rCYP2D6 Vmax” value ([25]; M3) was 1.44 µL/min/pmol and the “rCYP2D6 Vmax” value ([25]; M4) was 4.68 µL/min/pmol. For the same molecule, the Km ([25]; M3) was 190 µM, the Km ([25]; M4) was 214 µM and the AUC ([2]; 20 mg) was 1110 (36.9) ng/mL.h. For the same molecule, the “1/AUC Ratio” value [2] was 3.34, the AUCi [2] was 332 (56.4) ng/mL.h and the ka ([3]; ref (Olubodun et al., 2003), (Patat et al., 1994)) was 2.25 h⁻¹. For the same molecule, the “Vss (Minimal PBPK)” value ([5]; in vivo) was 0.68 L/kg, the “rCYP1A2 Vmax” value ([26]; M3) was 7.99 µL/min/pmol and the “rCYP1A2 Vmax” value ([26]; M4) was 0.777 µL/min/pmol. For the same molecule, the Km ([26]; M3) was 38 µM, the Km ([26]; M4) was 40 µM and the CLR ([1]; in vivo) was 0.18 L/h. For the same molecule, the fe ([1]; in vivo) was 0.01, the “rCYP2C19 Vmax” value [27] was 0.8 µL/min/pmol and the Km ([27]; read-out: rCYP2C19 Km) was 133 µM.
